As usually defined, the GI50 is the concentration at which growth is held to half of that of the control. In general, TGI refers to the concentration giving total growth inhibition. High values mean less potent growth arrest, low ones more potent growth arrest.

Among the data in PubChem BioAssay (NCI) are GI50 and TGI values, retold here.

What all share (assay): DTP human tumour cell line panel, 48 h
Assay [1] deals with SK-MEL-5 melanoma.
In assay [2] the test system is BT-549 breast.
Assay [3] deals with A549 NSCLC.
For assay [4], the system named is OVCAR-8 ovarian.
The subject of assay [5] is SF-539 CNS.
Assay [6] has as its system SNB-19 CNS.
The subject of assay [7] is PC-3 prostate.
The subject of assay [8] is HCT-15 colon.

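Cultured in 96-well plates, cells were exposed to test compound for 48 hours across five concentrations. GI50 marks 50% less growth. TGI is the concentration that stops growth completely.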

Consider `COCCn1cc(-c2nc(-c3cc4cccnc4[nH]3)cs2)c2cc(OC)ccc21`, for which the GI50 in assay [1] is 4.47 µM; in assay [2], 1.8 µM; in assay [3], 3.79 µM; in assay [4], 3.56 µM; in assay [5] it was 3.39 µM; in assay [6] it was 6.48 µM. For the same molecule, the GI50 is 3.13 µM in assay [7] and 2.26 µM in assay [8]. Besides, the TGI in assay [1] was 21.4 µM; in assay [2], 7.66 µM; in assay [3] it was over 100 µM; in assay [4], 45.3 µM; in assay [5], 42 µM; in assay [6], over 100 µM. The TGI in assay [7] amounted to 13.3 µM; in assay [8] it was 21.5 µM.

Regarding `c1ccc(Nc2ncc(-c3ccccc3)o2)cc1`, the GI50 in assay [1], in assay [2], in assay [3], in assay [4], in assay [5] and in assay [6] was over 25 µM throughout. In addition, the GI50 was over 23.2 µM in assay [7] and 24.3 µM in assay [8]. For the same molecule, the TGI in assay [1], in assay [2], in assay [3], in assay [4], in assay [5] and in assay [6] was over 25 µM each time. Moreover, the TGI in assay [7] and in assay [8] was over 25 µM in each case.

In the case of `CC[C@@H](c1ccc(O)c(O)c1)[C@@H](CC)c1ccc(O)c(O)c1`, the GI50 in assay [1] is 13.6 µM; in assay [2], 13.2 µM; in assay [3], 31.9 µM; in assay [4], 25.6 µM; in assay [5] it was 6.66 µM; in assay [6] it was 40.4 µM. Further, the results for the GI50 in assay [7] and in assay [8] were 12.4 µM and 2.39 µM, respectively. For the same molecule, the TGI in assay [1] was 28.9 µM; in assay [2], 26.1 µM; in assay [3], over 100 µM; in assay [4], over 100 µM; in assay [5], 23.6 µM; in assay [6], over 100 µM. The TGI amounted to 28.9 µM in assay [7] and 9.41 µM in assay [8].

`NC(=S)N/N=C\c1nccc2c(C(F)(F)F)cccc12`: the GI50 in assay [1] is 0.183 µM; in assay [2], 0.395 µM; in assay [3] it was 0.293 µM; in assay [4], 0.308 µM; in assay [5], 0.243 µM; in assay [6] it was 0.382 µM. In addition, the GI50 in assay [7] was 0.351 µM; in assay [8] it was 0.315 µM. The TGI in assay [1] was 0.921 µM; in assay [2], 7.71 µM; in assay [3], 3.26 µM; in assay [4] it was 24 µM; in assay [5], 0.857 µM; in assay [6] it was over 100 µM. For the same molecule, the concentration for total growth inhibition (TGI) in assay [7] was 15.2 µM; in assay [8], 19.2 µM.

For the molecule `COC(=O)c1cc2oc(/C=C3/SC(=S)N(NC(C)=O)C3=O)cc2n1C`, the GI50 is 12.6 µM in assay [1]; 6.13 µM in assay [2]; 28.3 µM in assay [3]; 23.1 µM in assay [4]; 12.9 µM in assay [5]; 31.6 µM in assay [6]. Also, the GI50 was 25.6 µM in assay [7] and 14.9 µM in assay [8]. In addition, the TGI is 26.2 µM in assay [1]; 22.7 µM in assay [2]; over 100 µM in assay [3]; 99.1 µM in assay [4]; 29.1 µM in assay [5]; over 100 µM in assay [6]. Further, the figures for the TGI in assay [7] and in assay [8] were 68.4 µM and 58.5 µM, respectively.

On to `Cn1cc(-c2cc3c(N4CCN(c5ncc([C@@](C)(N)c6ccc(F)cc6)cn5)CC4)ncnn3c2)cn1`, for which the GI50 is 5.15 µM in assay [2]; 5.61 µM in assay [3]; 4.11 µM in assay [4]; 1.6 µM in assay [5]; 9.63 µM in assay [6]; 1.99 µM in assay [7]. Moreover, in assay [8], the GI50 is 3.62 µM. The TGI in assay [2], in assay [3], in assay [4], in assay [5], in assay [6] and in assay [7] was over 100 µM each time. In addition, the TGI in assay [8] was over 100 µM.

As for `Cc1ccc(NC2=C3CCCCC3OC2=O)cc1` (configuration not stated), the GI50 in assay [1] was 34.9 µM; in assay [2] it was over 100 µM; in assay [3], over 100 µM; in assay [4], 78.4 µM; in assay [5], over 100 µM; in assay [6], 63.8 µM. Further, the figures for the GI50 in assay [7] and in assay [8] were 49.7 µM and over 100 µM, respectively. Also, the TGI in assay [1], in assay [2], in assay [3], in assay [4], in assay [5] and in assay [6] was over 100 µM throughout. Further, the TGI in assay [7] and in assay [8] was over 100 µM each time.

`C/C=C/[C@@H]1O[C@@H]2COC(=O)C2=C[C@@H]1O`: the GI50 was 16.7 µM in assay [1]; 3.59 µM in assay [2]; 20.6 µM in assay [3]; 23.3 µM in assay [4]; 2.78 µM in assay [5]; 24.2 µM in assay [6]. The GI50 is 18.7 µM in assay [7] and 16.9 µM in assay [8]. The concentration for total growth inhibition (TGI) was 31.5 µM in assay [1]; 15.2 µM in assay [2]; 40.4 µM in assay [3]; 51.8 µM in assay [4]; 8.14 µM in assay [5]; over 57 µM in assay [6]. For the same molecule, the values for the TGI in assay [7] and in assay [8] were 36.6 µM and 39.8 µM, respectively.

In the case of `COc1c2ccccc2c(OC)c2[nH]c(=O)ccc12`, the GI50 in assay [1] was 0.847 µM; in assay [2], 2.07 µM; in assay [3] it was 2.43 µM; in assay [4] it was 13.6 µM; in assay [5], 4.19 µM; in assay [6], 2.02 µM. Also, the results for the GI50 in assay [7] and in assay [8] were 5.53 µM and 1.78 µM, respectively. Besides, the TGI in assay [1] is 2.19 µM; in assay [2] it was 4.51 µM; in assay [3], over 20.6 µM; in assay [4], over 100 µM; in assay [5] it was over 36.5 µM; in assay [6], 4.11 µM. In addition, the TGI in assay [7] was over 43.7 µM; in assay [8], 4.53 µM.
